Data set [1] relates to Pseudomonas aeruginosa. Description: Broth dilution minimum inhibitory concentration, Pseudomonas aeruginosa. Type of data set: cell-based. The settings on record: for MIC: Pseudomonas aeruginosa, read-out: Minimum Inhibitory Concentration, Pseudomonas aeruginosa. As to the method: (§1) In the primary biocidal testing of the quaternary higher dialkyl phosphonium salts, broth dilution was used as the primary method to determine the minimum salt concentrations necessary for a complete inhibition of bacterial, fungal and algal growth. Typically, 2 ml per tube of trypticase soy broth was used as nutrient medium. Usually 10 mg of the phosphonium chloride was dissolved in 5 ml ethanol and this was then diluted to 10 ml with water to give an aqueous ethanol stock solution of […] concentration. The inoculum of the microorganism was one drop of a thousandfold diluted 24 hour culture which usually contained 1000 bacteria or 10,000 fungal or algal cells. To the inoculated broth media, different amounts of the experimental chemicals were administered. The media were then observed for visible growth after a period dependent on the type of the microorganism used. Bacterial growth or inhibition was observed after one or two days. Growths of fungi and algae were checked after 7 or 14 days. Observing a series of dilutions of the experimental chemical, minimum growth inhibitory, i.e., microbiostatic, concentrations (MIC) were determined.
(§2) A number of quaternary phosphonium chlorides characterized in Table I were broth dilution tested against an important gram negative bacterial organism, Pseudomonas aeruginosa; a common gram positive bacterium, Staphylococcus aureus, and a widespread fungus, Aspergillus niger, and a common algal organism, Chlorella vulgaris.
On the technique in general: In broth dilution the organism is exposed to a series of concentrations in liquid medium.

Data set [2] concerns Staphylococcus aureus. Description: Broth dilution minimum inhibitory concentration, Staphylococcus aureus. Type of data set: cell-based. The settings on record: read-out: Minimum Inhibitory Concentration, Staphylococcus aureus. As to the method: as §1, §2
In data set [3] the test system is Chlorella vulgaris. Description: Broth dilution minimum inhibitory concentration, Chlorella vulgaris. The data set is classed as cell-based. The settings on record: read-out: Minimum Inhibitory Concentration, Chlorella vulgaris. On the procedure:
as §1, §2

Data set [4] in a line: Interfacial tension in water-paraffin (Nujol) system, ASTM D-971. The settings on record: 25°. Type of data set: physicochemical. On the procedure:
(§3) To obtain standard data for estimating the surface activity of quaternary higher dialkyl phosphonium salts, the surface tensions of their water solutions and the interfacial tensions of their equilibriated solutions in water and a paraffinic hydrocarbon were determined as described by ASTM D-971-50.
(§4) Didodecyl dimethyl phosphonium chloride and, for comparison, octadecyl trimethyl phosphonium chloride were tested as described above, according to ASTM D-971. The surface tension towards air measurement used distilled water at 25°, which gives a base value of 72 dynes per cm. For interfacial tension measurements a water-paraffin (Nujol) system was used. Without any added surfactant, this has an interfacial tension of 52 dynes per cm. The interfacial tension measurements of the phosphonium chloride solutions were made after equal volumes of the two immiscible solvent and the given amount of salt were slowly stirred for 30 minutes to arrive at equilibrium concentrations of the salt.

Data set [5] deals with Aspergillus niger. As to the kind of experiment: Broth dilution minimum inhibitory concentration, Aspergillus niger. Type of data set: cell-based. The settings on record: for MIC: Aspergillus niger, read-out: Minimum Inhibitory Concentration, Aspergillus niger. As to the method:
as §1, §2

Data set [6] in a line: Surface tension of water solutions towards air, ASTM D-971. The data set is classed as physicochemical. The settings on record: 25°. On the procedure:
as §3, §4

Data set [7] concerns Candida albicans. Description: Broth dilution minimum inhibitory concentration, Candida albicans. Type of data set: cell-based. As to the method: as §1
(§5) To test the breadth of the microbiocidal spectrum of didecyl dimethyl phosphonium chloride, minimum inhibitory concentrations (MIC's) were determined against several additional organisms in broth dilution tests with the following results: […]

For data set [8], the system named is mice. Description: Acute oral toxicity in Swiss albino mice. The data set is classed as in vivo. As to the method:
(§6) The acute oral toxicity of didecyl dimethyl phosphonium chloride and dioctadecyl diethyl phosphonium chloride was determined using Swiss albino mice. The median lethal toxicities found were 350 and 2840 mg salt per body kg mice, respectively.

A short description of data set [9]: Acute oral toxicity in Swiss albino mice. Type of data set: in vivo. The settings on record: mouse, in vivo, Swiss albino mice, read-out: median lethal toxicity, acute oral. As to the method:
as §6

The test system of data set [10] is Staph. aureus. As to the kind of experiment: AOAC Germicidal and Sanitizer Test, Staph. aureus. The settings on record: Staphylococcus aureus. Type of data set: cell-based. The text has this: (§7) To determine the effectiveness of a quaternary higher dialkyl phosphonium salt, i.e. didecyl dimethyl phosphonium chloride as a bactericide, the AOAC Germicidal and Sanitizer Test was used.

For data set [11], the system named is Salmonella typhosa. Description: Broth dilution minimum inhibitory concentration, Salmonella typhosa. The settings on record: Salmonella enterica. Type of data set: cell-based. On the procedure:
as §1, §5

Data set [12] concerns E. coli. Description: AOAC Germicidal and Sanitizer Test, E. coli. The data set is classed as cell-based. The settings on record: Escherichia coli.
Description: as §7

Data set [13] concerns Escherichia coli. As to the kind of experiment: Broth dilution minimum inhibitory concentration, Escherichia coli. The data set is classed as cell-based. On the procedure:
as §1, §5

The subject of data set [14] is bacterial, fungal and algal growth. Description: Microbiocidal activity in general (broth dilution). The data set is classed as cell-based. As to the method:
as §1

Data set [15] in a line: Solubility in toluene.

Read-outs that look alike come from different tables or passages of the source.

On to `CCCCCCCCCCCC[P+](C)(C)CCCCCCCCCCCC.[Cl-]` [Example 1, Didodecyl Dimethyl Phosphonium Chloride], for which, in data set [1], the “activity against Pseudomonas aeruginosa” value is “no significant activity”. The MIC in [1] (24 h, after 1 day) came out at 2500 µg/mL; in data set [2] (24 h, after 1 day), 1 µg/mL; in data set [3] (168 h, after 7 days) it was 8 µg/mL; in data set [5] (168 h, after 7 days) it was 75 µg/mL. Moreover, the “Interfacial Tension of Water-Nujol” value in data set [4] (0.001% salt) is on record as 3 Dynes/cm; in data set [4] (0.0025% salt) it was 3 Dynes/cm; in [4] (0.005% salt) it was 3 Dynes/cm; in data set [4] (0.0075% salt), 3 Dynes/cm; in data set [4] (0.010% salt) it was 3 Dynes/cm; in data set [4] (0.100% salt), 2 Dynes/cm. Moreover, the “Surface Tension of Water” value in data set [6] (0.001% salt) turned out to be 33 Dynes/cm; in data set [6] (0.0025% salt), 33 Dynes/cm; in data set [6] (0.005% salt), 32 Dynes/cm; in [6] (0.0075% salt) it was 31 Dynes/cm; in data set [6] (0.010% salt), 31 Dynes/cm; in data set [6] (0.100% salt), 29 Dynes/cm.

For the molecule `CCCCCCCCCC[P+](C)(C)CCCCCCCCCC.[Cl-]` [Example 3, Didecyl Dimethyl Phosphonium Chloride], the “activity against Pseudomonas aeruginosa” value in [1] is on record as “Particularly outstanding”. Moreover, the MIC in data set [1] (24 h) worked out at 16 µg/mL; in data set [2] (48 h) it was 0.5 µg/mL; in data set [7], 0.25 µg/mL; in [3] (336 h), 0.125 µg/mL; in [11], 8 µg/mL; in data set [5] (336 h) it was 0.25 µg/mL. The molecule also came in with an MIC in data set [13] of 0.5 µg/mL. Further, in data set [8], the “level of oral toxicity” value is reported as “medium level of oral toxicity”. In addition, in data set [9], the LD50 was found to be 350 mg/kg. For the same molecule, the killing at 25 ppm amounted to 100% in [10] (read-out: Reduction of live Bacterial Organisms in Distilled Water); 100% in data set [10] (read-out: Reduction of live Bacterial Organisms in water of 200 ppm Hardness); 99.9% in data set [12] (200 ppm hardness, read-out: Reduction of live Bacterial Organisms in water of 200 ppm Hardness); 100% in data set [12] (distilled water, read-out: Reduction of live Bacterial Organisms in Distilled Water). The “minimum inhibitory concentration against Aspergillus niger relative to didodecyl dimethyl phosphonium chloride” value in data set [5] (didecyl versus didodecyl compound (Seq. No. 4)) is “three hundred times smaller”.

On to `CCCCCCCCCCCCCCCCCC[P+](CC)(CC)CCCCCCCCCCCCCCCCCC.[Cl-]` [Example 8, Dioctadecyl Diethyl Phosphonium Chloride], for which the MIC in data set [1] (48 h) came to 500 µg/mL; in [2] (48 h), 15 µg/mL; in data set [3] (336 h), 7.5 µg/mL; in data set [5] (336 h), 15 µg/mL. In addition, the “microbiocidal activity” value in [14] is on record as “not highly active microbiocidally”. In addition, in data set [8], the “level of oral toxicity” value is “essential lack of oral toxicity”. In addition, in [9], the LD50 worked out at 2840 mg/kg.

For the molecule `CCCCCCCC[P+](C)(C)CCCCCCCC.[Cl-]` [Example 4, Dioctyl Dimethyl Phosphonium Chloride], the MIC is 250 µg/mL in data set [1] (24 h, after 1 day); 0.5 µg/mL in data set [2] (48 h, after 2 days); 4 µg/mL in data set [3] (336 h, after 14 days); 7.5 µg/mL in [5] (336 h, after 14 days).

`CCCCCCCCCCCCCCCC[P+](CC)(CCCCCCCCCCCCCCCC)CC(C)C.[Cl-]` [Example 7, Dihexadecyl Isobutyl Ethyl Phosphonium Chloride]: in data set [1], the “activity against Pseudomonas aeruginosa” value was “Particularly outstanding”. In addition, the MIC in [1] (24 h, after 1 day) came out at 16 µg/mL; in data set [2] (24 h, after 1 day), 0.5 µg/mL; in data set [3] (336 h, after 14 days) it was 0.5 µg/mL; in [5] (336 h, after 14 days), 0.5 µg/mL.

Regarding `CCCCCCCCCCCC[P+](CC)(CCCCCCCCCCCC)CC(C)C.[Cl-]` [Example 6, Didodecyl Isobutyl Ethyl Phosphonium Chloride], the “activity against Pseudomonas aeruginosa” value in data set [1] is reported as “Particularly outstanding”. The MIC in [1] (24 h, after 1 day) is 16 µg/mL; in data set [2] (24 h, after 1 day), 0.5 µg/mL; in [3] (336 h, after 14 days), 0.5 µg/mL; in data set [5] (336 h, after 14 days), 1 µg/mL. In addition, in data set [15], the “solubility in toluene” value is given as “highly soluble in toluene”.

As to `CCCCCCCC[P+](C)(CC)CCCCCCCC.[Cl-]` [Example 5, Dioctyl Ethyl Methyl Phosphonium Chloride], the MIC in data set [1] (48 h, after 2 days) is 250 µg/mL.

Consider `CCCCCCCCCCCCCCCCCC[P+](C)(C)C.[Cl-]` [C18 H37 P^+ (CH3)3, octadecyl trimethyl phosphonium chloride, reference compound], for which the “Interfacial Tension of Water-Nujol” value turned out to be 12 Dynes/cm in data set [4] (0.010% salt) and 10 Dynes/cm in data set [4] (0.100% salt). The “Surface Tension of Water” value in data set [6] (0.010% salt) was found to be 42 Dynes/cm; in [6] (0.100% salt) it was 41 Dynes/cm.

For the origin of these results see patent US4188380A, “Surface active quaternary higher dialkyl phosphonium salt biocides and intermediates” (Exxon Research & Engineering Co., priority 1976, dated 1980).
